In patent publication US20060165644A1, “Cosmetics” (Fancl Corporation, priority 2002, published 2006):

Tested on: Pseudomonas aeruginosa, Escherichia coli, Staphylococcus aureus
Test: Evaluation of reduction effect for inoculated bacteria
Format: cell-based
Settings: about 10^7 bacteria per 1 g sample; 7 days at 25° C.; plate count
Protocol: Pseudomonas aeruginosa, Escherichia coli, Staphylococcus aureus of about 10^7 were inoculated to the samples shown in Table 3 per 1 g of the respective samples. The viable microbe cell number were measured by plate count method after cultivation for 7 days at 25° C.
The viable microbe cell number on seventh day was calculated as a residual rate by defining the number of inoculated microbes to 100%, and the antibacterial activity of the samples was evaluated by classifying the residual rate into standards of four ranks as follow.

Row | SMILES | Antibacterial activity (residual rate of viable microbes)
1 | CC(O)CCO (centres unmarked) [Sample 9, 1,3-butylene glycol] | ◯ (Residual rate lower than 10%, not lower than 0.01%)
2 | CCCC(O)CO (centres unmarked) [Sample 10, 1,2-pentanediol] | ◯ (Residual rate lower than 10%, not lower than 0.01%)
